Assay results published in patent publication US20050288265A1, “Novel combination of glucocorticoids and pde-4 inhibitors for treating respiratory diseases, allegic diseases, asthma and copd” (priority 2002, published 2005).
Where two headings read alike, the source gives them in different places.

What was measured:
[1] = test system: TNF release from LPS-stimulated monocytes; assay: Inhibition of TNF release from LPS-stimulated monocytes; type: cell-based, human; settings: for IC50: Homo sapiens, Monocyte, substance alone, LPS-stimulated monocytes
Protocol: EDTAized human whole blood was mixed with Hanks' buffer in the ratio 1:1. Histopaque 1077 solution (15 ml) was cautiously overlaid with max. 40 ml of the blood: Hanks' mixture and centrifuged (2000 rpm) at room temperature for 30 min. The band enriched with leukocytes was aspirated off, washed twice with Hanks' buffer and transferred into RPMI 1640 medium with Glutamax I (Gibco BRL, Eggenstein). The monocytes were removed through their adherence to the cell culture bottle over a period of two hours. The cells were then thoroughly washed with medium in order to remove non-adherent cells. The resulting monocytes were cultured in RPMI 1640 medium with 10% heat-inactivated fetal calf's serum (FCS) and 100 U/ml penicillin and 100 μg/ml streptomycin in a CO2 incubator (5% CO2, 96% relative humidity, 37° C.).
Primary monocytes were seeded in 24-well plates at 5×10^5 cells/well. The cells were preincubated with the stated test substances for 30 minutes. LPS was then added, and incubation was continued for a period of 24 h. The supernatants were aspirated off and investigated by ELISA.

[2] = test system: GM-CSF release from LPS-stimulated monocytes; assay: Inhibition of GM-CSF release from LPS-stimulated monocytes; type: cell-based, human; settings: for IC50: Homo sapiens, Monocyte
Protocol: Inhibition of GM-CSF Release from LPS-Stimulated Monocytes EDTAized human whole blood was mixed with Hanks' buffer in the ratio 1:1. Histopaque 1077 solution (15 ml) was cautiously overlaid with max. 40 ml of the blood: Hanks' mixture and centrifuged (2000 rpm) at room temperature for 30 min. The band enriched with leukocytes was aspirated off, washed twice with Hanks' buffer and transferred into RPMI 1640 medium with Glutamax I (Gibco BRL, Eggenstein). The monocytes were removed through their adherence to the cell culture bottle over a period of two hours. The cells were then thoroughly washed with medium in order to remove non-adherent cells. […] The cells were preincubated with the stated test substances for 30 minutes. LPS was then added, and incubation was continued for a period of 24 h. The supernatants were aspirated off and investigated by ELISA. The amount of secreted human GM-CSF in the cell culture supernatants was determined by using an OptEIA™ human GM-CSF ELISA test (Pharmingen, San Diego). It was carried out in microtiter plates. Anti-human monoclonal antibodies were coupled as antibodies to the plate at 4° C. overnight. This coating and three washes were followed by saturation of nonspecific bindings by means of assay diluent solution™ (PBS with 10% FCS, pH 7.0) (Pharmingen, San Diego) at RT for 1 h. This was followed by incubation with the samples and the standard (recombinant human GM-CSF) at 4° C. overnight. […] All the steps were followed by washing 5 or 7 times with PBS/0.05% Tween 20. The enzyme activity was determined using substrate solution™ (tetramethylbenzidine (TMB) and hydrogen peroxide, Pharmingen, San Diego) as substrate at RT for 30 min. The enzyme-substrate reaction was stopped with 1M phosphoric acid, and the extinction at 450 nm was measured.

[3] = when 10 nM loteprednol was given simultaneously
[4] = substance alone, LPS-stimulated primary monocytes, 24 h, read-out: IC50 for GM-CSF release from human monocytes

Row | IC50 [1] | reduction in the IC50 for TNF release [1, 3] | IC50 ([2]; addition of 10 nM loteprednol, read-out: IC50 for DFHO for GM-CSF release in the presence of loteprednol) | IC50 [2, 4] | reduction in the IC50 for GM-CSF release [2, 3] | reduction in the IC50 for TNF release ([1]; when 5 nM DFHO was given) | IC50 ([2]; addition of 5 nM DFHO, read-out: IC50 for loteprednol for GM-CSF release in the presence of DFHO) | reduction in the IC50 for GM-CSF release ([2]; when 5 nM DFHO was given) | SMILES
1 | 5700 nM | 99% | 60 nM | 3200 nM | 98% |  |  |  | O=C(Nc1c(Cl)cncc1Cl)C(=O)c1cn(Cc2ccc(F)cc2)c2ccc(O)cc12 [DFHO, N-(3,5-dichloropyridin-4-yl)-2-[1-(4-fluoro-benzyl)-5-hydroxyindol-3-yl]-2-oxoacetamide]
2 | 85.5 nM |  |  | 53.7 nM |  | 65% | 13.4 nM | 75% | CCOC(=O)O[C@]1(C(=O)OCCl)CC[C@H]2[C@@H]3CCC4=CC(=O)C=C[C@]4(C)[C@H]3[C@@H](O)C[C@@]21C [loteprednol]
